According to patent publication US12486298B2, “Fucosyltransferase specific inhibition using fucose mimetics” (THE FLORIDA INTERNATIONAL UNIVERSITY BOARD OF TRUSTEES, priority 2020, dated 2025):

How the values were obtained:
Assay type in all cases: cell-based
[1] = target: T1, fucosyltransferase IX (FTIX) (Homo sapiens, UniProt Q9Y231); test: FTIX exofucosylation of mesenchymal stem cells (MSC), Le^x by flow cytometry; conditions: MSCs; same conditions as RPMI-8402 cells
T1 sequence (Q9Y231 1-359): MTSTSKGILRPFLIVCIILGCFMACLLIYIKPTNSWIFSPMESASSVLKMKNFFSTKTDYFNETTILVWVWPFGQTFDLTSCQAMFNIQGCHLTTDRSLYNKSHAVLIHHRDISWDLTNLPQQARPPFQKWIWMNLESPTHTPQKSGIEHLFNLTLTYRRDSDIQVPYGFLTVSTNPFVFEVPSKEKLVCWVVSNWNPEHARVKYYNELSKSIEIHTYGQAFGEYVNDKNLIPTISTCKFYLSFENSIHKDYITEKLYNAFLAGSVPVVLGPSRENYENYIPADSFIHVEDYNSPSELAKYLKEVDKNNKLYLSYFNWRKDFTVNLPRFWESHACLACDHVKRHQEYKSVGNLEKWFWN
Protocol: (§1) A Canto II (BD Biosciences) flow cytometer was utilized for flow cytometry and the data acquired was analyzed using FlowJo Software (Treestar). Cells were stained using antibodies specific to sLe^X (Alexa-Fluor 488 Mouse Anti-Human CD15s (BD Biosciences)), or Le^X (APC anti-human CD15 (SSEA-1) Antibody (BioLegend)).
(§2) Cells of the RPMI-8402 cell line and MSC cell line were treated with either 0.3 ug of fucosyltransferase VI (FTVI), 2.7 ug of fucosyltransferase VII (FTVII), 1.0 ug fucosyltransferase IX (FTIX) or buffer-only at 37° C. for 60 minutes. All reactions contained at 1×10^6 cells/30 ul in HBSS with 10 mM Hepes, 0.1% Human Serum Albumin, and 1.0 mM GDP fucose (GDP-Fuc) (Carbosynth) and the appropriate fucosytransferase. Then, mimetic 1 was added to each of the treatment groups in molar equivalents with respect to GDP-Fuc with each of the fucosytransferases. […]
(§3) Mimetic 1 (FIG. 1) was tested as an inhibitor of FT-mediated exofucosylation on these cells and the extent of fucosylation was monitored using antibodies that detect the creation of the relevant fucosylated epitopes, i.e., sLe^x or Le^x. […]

[2] = target: T2, fucosyltransferase VII (FTVII) (Homo sapiens, UniProt Q11130); test: FTVII exofucosylation of mesenchymal stem cells (MSC), sLe^x by flow cytometry; conditions: MSCs
T2 sequence (Q11130 37-342 limits assumed): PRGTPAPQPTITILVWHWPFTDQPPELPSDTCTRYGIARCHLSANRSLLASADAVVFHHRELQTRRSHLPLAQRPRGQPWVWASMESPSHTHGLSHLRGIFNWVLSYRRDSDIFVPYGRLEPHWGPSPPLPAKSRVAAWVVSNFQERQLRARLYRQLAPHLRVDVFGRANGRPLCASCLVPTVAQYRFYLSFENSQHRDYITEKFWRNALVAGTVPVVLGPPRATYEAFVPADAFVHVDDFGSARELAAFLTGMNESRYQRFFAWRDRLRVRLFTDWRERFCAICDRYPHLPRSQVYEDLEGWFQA
Protocol: as §1, §2, §3

[3] = target: T1, fucosyltransferase IX (FTIX); test: FTIX exofucosylation of RPMI-8402 cells, Le^x by flow cytometry
Protocol: as §1, §2, §3

[4] = target: T3, fucosyltransferase VI (FTVI) (Homo sapiens, UniProt P51993); test: FTVI exofucosylation of mesenchymal stem cells (MSC), sLe^x and Le^x by flow cytometry; conditions: MSCs; 1.0 mM GDP-Fuc with 1.0 mM or 2.0 mM mimetic 1
T3 construct: purchased R&D systems
T3 sequence (P51993 35-359 limits assumed): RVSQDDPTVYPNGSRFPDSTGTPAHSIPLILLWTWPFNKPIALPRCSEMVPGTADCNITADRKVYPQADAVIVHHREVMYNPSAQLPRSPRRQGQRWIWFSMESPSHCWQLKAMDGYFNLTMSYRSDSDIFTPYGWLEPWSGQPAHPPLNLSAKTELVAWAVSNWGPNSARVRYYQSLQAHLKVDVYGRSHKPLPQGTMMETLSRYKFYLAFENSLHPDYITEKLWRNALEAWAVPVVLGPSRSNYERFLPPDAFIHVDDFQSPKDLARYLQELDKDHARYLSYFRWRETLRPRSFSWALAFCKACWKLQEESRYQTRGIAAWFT
Protocol: as §1, §2, §3

## CC1OC2Oc3ccc(CC(=O)O)cc3SC2C(O)C1O (stereo not shown) [mimetic 1]
[1]
  inhibition of FTIX production of Le^x: did not inhibit FTIX production of Le^x
[2]; 1.0 mM GDP-Fuc with 1.0 mM or 2.0 mM mimetic 1
  inhibition of FTVII sLe^x production: inhibition was clear
[2]; pre-incubation with 2.0 mM mimetic 1, then 1.0 mM GDP-Fuc
  level of FTVII inhibition in pre-incubation reactions: stronger
[3]; RPMI-8402 cells, 1.0 mM GDP-Fuc with 1.0 mM or 2.0 mM mimetic 1
  inhibition of FTIX-mediated exofucosylation (Le^x creation): did not inhibit FTIX-mediated exofucosylation
[3]; pre-incubation with 2.0 mM mimetic 1 prior to addition of GDP-Fuc
  effect of pre-incubation on FTIX-mediated exofucosylation: no effect
[4]
  inhibition of FTVI production of Le^x: clearly inhibited
  inhibition of FTVI production of sLe^x: markedly diminished
